The compounds below were run on CHK2 phosphorylation (phospho-Thr68) in HCT116 cells (assay: Cellular pCHK2 assay, bleomycin-induced phosphorylation of CHK2 (phospho-Thr68), immunofluorescence high content). Settings: Homo sapiens, HCT-116; HCT116 cells, 10 μM bleomycin, 4 h; read-out: IC50 (pCHK2).
Assay type: cell-based
Excerpt: For the identification of substances which inhibit the phosphorylation of the protein kinase CHK2 at the amino acid threonine 68, an immunofluorescence-based “high content” analysis assay was used in HCT116 cells.
In vitro cell-based immunofluorescence assay for the identification of inhibitors of bleomycin-induced phosphorylation of CHK2 (phospho-Thr68) in the human colon carcinoma cell line HCT116:
HCT116 cells are sown out in a defined cell density in 384-well plates in culture medium (DMEM high glucose, 2 mM GlutaMax, 1 mM Na pyruvate, 10% FCS) and incubated overnight at 37° C. and 10% of CO2. On the following day, the test substances are added in a defined concentration range (1 nM to 30 μM) in combination with 10 μM bleomycin, where the concentration of the solvent DMSO is kept constant at 0.5%. After incubation for four hours at 37° C. and 10% of CO2, the cells are fixed (5 min, 4% formaldehyde in PBS), permeabilised (10 min, 0.2% Triton X-100 in PBS) and, after blocking of nonspecific binding sites (10% goat serum, 1% BSA in PBS), incubated overnight at 4° C. with a specific anti-pCHK2 antibody (cell signalling #2661). pCHK2 (Thr68) is determined using an Alexa488-labelled secondary anti-rabbit IgG antibody. Parallel staining of DNA with propidium iodide enables determination of the cell count. The pCHK2 signal is detected using a high-content imager (Molecular Devices IMX Ultra) and automatic image analysis using the MetaXpress software belonging to the instrument. The number of cell nuclei which have a pCHK2 signal above a defined background is determined.

Compound | IC50 [nM]
COc1cc2ncc3c(c2cc1-c1cn(C)nn1)n(-c1cn(C)nc1C)c(=O)n3C [Compound Example 42, 1-(1,3-Dimethyl-1H-pyrazol-4-yl)-7-methoxy-3-methyl-8-(1-methyl-1H-1,2,3-triazol-4-yl)-1,3-dihydroimidazo-[4,5-c]quinolin-2-one] | 200 to 1000
COc1cc2ncc3c(c2cc1-c1cnn(C)c1)n(-c1ccc(C#N)cn1)c(=O)n3C [Compound Example 48, 6-[7-Methoxy-3-methyl-8-(1-methyl-1H-pyrazol-4-yl)-2-oxo-2,3-dihydroimidazo-[4,5-c]quinolin-1-yl]-nicotinonitrile] | 200 to 1000
COc1cc2ncc3c(c2cc1-c1cnn(C)c1)n(-c1ccc(F)cn1)c(=O)n3C [Compound Example 50, 1-(5-Fluoropyridin-2-yl)-7-methoxy-3-methyl-8-(1-methyl-1H-pyrazol-4-yl)-1,3-dihydroimidazo[4,5-c]-quinolin-2-one] | 200 to 1000
COc1cc2ncc3c(c2cc1-c1cnn(C)c1)n(-c1ncccn1)c(=O)n3C [Compound Example 52, 7-Methoxy-3-methyl-8-(1-methyl-1H-pyrazol-4-yl)-1-pyrimidin-2-yl-1,3-dihydro-imidazo[4,5-c]quinolin-2-one] | 200 to 1000
COc1cc2ncc3c(c2cc1-c1cnn(C)c1)n(-c1ccccn1)c(=O)n3C [Compound Example 56, 7-Methoxy-3-methyl-8-(1-methyl-1H-pyrazol-4-yl)-1-pyridin-2-yl-1,3-dihydro-imidazo[4,5-c]quinolin-2-one] | 200 to 1000
COc1cc2ncc3c(c2cc1-c1cn(C)nn1)n(-c1c(C)cncc1F)c(=O)n3C [compound 63, 1-(3-Fluoro-5-methylpyridin-4-yl)-7-methoxy-3-methyl-8-(1-methyl-1H-1,2,3-triazol-4-yl)-1,3-dihydroimidazo-[4,5-c]quinolin-2-one] | 200 to 1000
COc1cc2ncc3c(c2cc1-c1cn(C)nn1)n(-c1ccncc1F)c(=O)n3C [compound 64, 1-(3-Fluoropyridin-4-yl)-7-methoxy-3-methyl-8-(1-methyl-1H-1,2,3-triazol-4-yl)-1,3-dihydroimidazo-[4,5-c]quinolin-2-one] | 200 to 1000
COc1cc2ncc3c(c2cc1-c1cc(N)n[nH]1)n(-c1ncccc1F)c(=O)n3C [compound 65, 8-(3-Amino-1H-pyrazol-5-yl)-1-(3-fluoro-2-pyridyl)-7-methoxy-3-methyl-imidazo-[4,5-c]quinolin-2-one] | 200 to 1000
COc1cc2ncc3c(c2cc1-c1cnn(C)c1)n(-c1ccc2ccccc2n1)c(=O)n3C [compound 68, 7-Methoxy-3-methyl-8-(1-methyl-1H-pyrazol-4-yl)-1-quinolin-2-yl-1,3-dihydro-imidazo[4,5-c]quinolin-2-one] | 1000 to 2000
COc1cc2ncc3c(c2cc1-c1cnn(C)c1)n(-c1ccc2cc[nH]c2n1)c(=O)n3C [compound 69, 7-Methoxy-3-methyl-8-(1-methyl-1H-pyrazol-4-yl)-1-(1H-pyrrolo[2,3-b]pyridin-6-yl)1,3-dihydroimidazo-[4,5-c]quinolin-2-one] | 200 to 1000
COc1cc2ncc3c(c2cc1-c1cnn(C)n1)n(-c1ncc(F)cc1F)c(=O)n3C [compound 101, 1-(3,5-Difluoropyridin-2-yl)-7-methoxy-3-methyl-8-(2-methyl-2H-1,2,3-triazol-4-yl)-1,3-dihydroimidazo-[4,5-c]quinolin-2-one] | < 200
COc1cc2ncc3c(c2cc1-c1cnn(C)n1)n(-c1cn(C)nc1C)c(=O)n3C [compound 102, 1-(1,3-Dimethyl-1H-pyrazol-4-yl)-7-methoxy-3-methyl-8-(2-methyl-2H-1,2,3-triazol-4-yl)-1,3-dihydroimidazo-[4,5-c]quinolin-2-one] | < 200
CCn1cc(-c2cc3c(cc2OC)ncc2c3n(-c3ccncc3OC)c(=O)n2C)cn1 [compound 104, 8-(1-Ethyl-1H-pyrazol-4-yl)-7-methoxy-1-(3-methoxy-pyridin-4-yl)-3-methyl-1,3-dihydroimidazo[4,5-c] quinolin-2-one] | 200 to 1000
COc1cnc(-n2c(=O)n(C)c3cnc4cc(OC)c(-c5cn(C)nc5C)cc4c32)c(F)c1 [compound 106, 8-(1,3-Dimethyl-1H-pyrazol-4-yl)-1-(3-fluoro-5-methoxypyridin-2-yl)-7-methoxy-3-methyl-1,3-dihydroimidazo[4,5-c]-quinolin-2-one] | 200 to 1000
COc1cc2ncc3[nH]c(=O)n(-c4ncc(F)cc4F)c3c2cc1-c1cnn(C)c1 [compound 107, 1-(3,5-Difluoropyridin-2-yl)-7-methoxy-8-(1-methyl-1H-pyrazol-4-yl)-1,3-dihydro-imidazo[4,5-c]quinolin-2-one] | 200 to 1000
COc1cnc(-n2c(=O)n(C)c3cnc4cc(OC)c(-c5ccn[nH]5)cc4c32)c(F)c1 [compound 109, 1-(3-Fluoro-5-methoxy-pyridin-2-yl)-7-methoxy-3-methyl-8-(2H-pyrazol-3-yl)-1,3-dihydroimidazo[4,5-c] quinolin-2-one] | < 200
CCn1cc(-c2cc3c(cc2OC)ncc2c3n(-c3ncc(OC)cc3F)c(=O)n2C)cn1 [compound 111, 8-(1-Ethyl-1H-pyrazol-4-yl)-1-(3-fluoro-5-methoxy-pyridin-2-yl)-7-methoxy-3-methyl-1,3-dihydroimidazo-[4,5-c]quinolin-2-one] | 200 to 1000
CCc1cncc(F)c1-n1c(=O)n(C)c2cnc3cc(OC)c(-c4cnn(C)n4)cc3c21 [compound 112, 1-(3-Ethyl-5-fluoropyridin-4-yl)-7-methoxy-3-methyl-8-(2-methyl-2H-1,2,3-triazol-4-yl)-1,3-dihydroimidazo-[4,5-c]quinolin-2-one] | 200 to 1000
CCOc1cnc(-n2c(=O)n(C)c3cnc4cc(OC)c(-c5cnn(C)c5)cc4c32)c(F)c1 [compound 113, 1-(5-Ethoxy-3-fluoropyridin-2-yl)-7-methoxy-3-methyl-8-(1-methyl-1H-pyrazol-4-yl)-1,3-dihydroimidazo[4,5-c]-quinolin-2-one] | < 200
COc1cnc(-n2c(=O)[nH]c3cnc4cc(OC)c(-c5cnn(C)c5)cc4c32)c(F)c1 [compound 115, 1-(3-Fluoro-5-methoxy-pyridin-2-yl)-7-methoxy-8-(1-methyl-1H-pyrazol-4-yl)-1,3-dihydroimidazo[4,5-c]-quinolin-2-one] | 200 to 1000
COc1cc2ncc3[nH]c(=O)n(-c4c(F)cncc4OC)c3c2cc1-c1cnn(C)c1 [compound 116, 1-(3-Fluoro-5-methoxy-pyridin-4-yl)-7-methoxy-8-(1-methyl-1H-pyrazol-4-yl)-1,3-dihydroimidazo[4,5-c]-quinolin-2-one] | 1000 to 2000
COc1cc2ncc3c(c2cc1-c1cnn(C)c1)n(-c1ncc(Cl)cc1F)c(=O)n3C [compound 119, 1-(5-Chloro-3-fluoropyridin-2-yl)-7-methoxy-3-methyl-8-(1-methyl-1H-pyrazol-4-yl)-1,3-dihydroimidazo[4,5-c]-quinolin-2-one] | < 200
COc1cc2ncc3c(c2cc1-c1ccn[nH]1)n(-c1c(F)cncc1OC)c(=O)n3C [compound 124, 1-(3-Fluoro-5-methoxy-pyridin-4-yl)-7-methoxy-3-methyl-8-(2H-pyrazol-3-yl)-1,3-dihydroimidazo[4,5-c] quinolin-2-one] | 200 to 1000
COc1cc2ncc3c(c2cc1-c1cnn(C)n1)n(-c1c(F)cncc1OC)c(=O)n3C [compound 127, 1-(3-Fluoro-5-methoxy-pyridin-4-yl)-7-methoxy-3-methyl-8-(2-methyl-2H-1,2,3-triazol-4-yl)-1,3-dihydroimidazo[4,5-c] quinolin-2-one] | 200 to 1000
COc1cnc(-n2c(=O)n(C)c3cnc4cc(OC)c(-c5cnn[nH]5)cc4c32)c(F)c1 [compound 128, 1-(3-Fluoro-5-methoxy-pyridin-2-yl)-7-methoxy-3-methyl-8-(3H-1,2,3-triazol-4-yl)-1,3-dihydroimidazo-[4,5-c]quinolin-2-one] | 200 to 1000
COc1cc2ncc3[nH]c(=O)n(-c4c(F)cncc4OC)c3c2cc1-c1cn(C)nc1C [compound 129, 8-(1,3-Dimethyl-1H-pyrazol-4-yl)-1-(3-fluoro-5-methoxy-pyridin-4-yl)-7-methoxy-1,3-dihydroimidazo[4,5-c]-quinolin-2-one] | 1000 to 2000
CCn1cc(-n2c(=O)n(C)c3cnc4cc(OC)c(-c5cnn(C)c5)cc4c32)c(C)n1 [compound 130, 1-(1-Ethyl-3-methyl-1H-pyrazol-4-yl)-7-methoxy-3-methyl-8-(1-methyl-1H-pyrazol-4-yl)-1,3-dihydro-imidazo[4,5-c]quinolin-2-one] | 200 to 1000
COc1cc2ncc3c(c2cc1-c1cn(C)nn1)n(-c1c(F)cncc1OC)c(=O)n3C [compound 131, 1-(3-Fluoro-5-methoxy-pyridin-4-yl)-7-methoxy-3-methyl-8-(1-methyl-1H-1,2,3-triazol-4-yl)-1,3-dihydroimidazo[4,5-c]-quinolin-2-one] | 200 to 1000
COc1cc2ncc3c(c2cc1-c1ccc2nc(C)[nH]c2c1)n(-c1cn(C)nc1C)c(=O)n3C [compound 132, 1-(1,3-Dimethyl-1H-pyrazol-4-yl)-7-methoxy-3-methyl-8-(2-methyl-3H-benzo-imidazol-5-yl)-1,3-dihydro-imidazo[4,5-c]quinolin-2-one] | 200 to 1000
